Like-named read-outs stand apart in the source and are kept apart here.
Experiments:
[1] = system: A549 (non-small-cell lung carcinoma); parameters: method as in PMID 36432656; details: MTT, 96 h; cited from earlier work
[2] = system: SW480 (colon adenocarcinoma); parameters: method as in PMID 36432656; details: MTT, 96 h; cited from earlier work
[3] = system: CH1/PA-1 (ovarian teratocarcinoma); parameters: method as in PMID 36432656; details: MTT, 96 h; cited from earlier work
[4] = system: SW480 (colon adenocarcinoma); assay: MTT cytotoxicity assay, SW480 cells (96 h); assay type: cell-based, human
Procedure: (§1) Cell culture of the cell lines CH1/PA-1, SW480 and A549 was performed as described in reference. 4T1 cells were purchased from American Type Culture Collection, stored in a liquid nitrogen dewar and cultured in Roswell Park Memorial Institute (RPMI)-1640 medium supplemented with 10% foetal bovine serum (FBS) (Thermo Fisher, Waltham, MA, USA).
(§2) Cytotoxicity tests (96 h incubation) in the cell lines CH1/PA-1, SW480 and A549 were conducted as described in reference. Compounds were dissolved in supplemented minimum essential medium (MEM), except for compound C10, which was dissolved in sterile Milli-Q water.
(§3) Based on the required solubility, conjugates C1–C12 were forwarded for cytotoxicity assessments, whereas conjugates S1–S5 could not be tested due to solubility issues (Supporting Information, Table S1). The twelve substances C1–C12 were examined in comparison to the free platinum(IV) complexes and the unloaded dGC polymers with three different chain lengths for their cytotoxic activity in vitro. For this purpose, the colorimetric MTT assay was used in three human cancer cell lines (A549 (non-small-cell lung carcinoma), CH1/PA-1 (ovarian teratocarcinoma) and SW480 (colon adenocarcinoma)), yielding IC50 values in the low micromolar to nanomolar concentration range for all conjugates (Table 3, Supporting Information, Figures S18–S20). The three tested cell lines differ in their platinum sensitivity. SW480 and A549 cells are intrinsically cisplatin- and carboplatin-resistant due to their low expression of CTR1, whereas CH1/PA-1 cells show high chemosensitivity, particularly to platinum drugs.

[5] = system: A549 (non-small-cell lung carcinoma); assay: MTT cytotoxicity assay, A549 cells (96 h); assay type: cell-based, human
Procedure: as §1, §2, §3

[6] = system: CH1/PA-1 (ovarian teratocarcinoma); assay: MTT cytotoxicity assay, CH1/PA-1 cells (96 h); assay type: cell-based, human
Procedure: as §1, §2, §3

[7] = Biodistribution study (platinum content of organs by ICP-MS) in non-tumour-bearing mice; assay type: in vivo, Balb/C mice
Procedure: The Animal Welfare and Ethical Review Body at University College London (UCL) authorised all animal experiments, which were performed under license from the Home Office, UK. […] All substances were applied intravenously (100 µL stock/20 g body weight) via tail vein injection. At the chosen time points, animals were culled with CO2, and the major organs (lung, heart, liver, spleen and kidneys) were collected and frozen in liquid nitrogen. The samples were transferred to the Institute of Inorganic Chemistry, University of Vienna, Austria, where the total platinum content of each sample was determined with an Agilent 7500 ICP-quadrupole MS instrument.
The major organs of liver, lung, heart, kidney and spleen were collected after two specific time points (1 h and 24 h), and the platinum content of each organ was evaluated with ICP-MS analysis (Figure 3).

[8] = MTT, 96 h incubation, read-out: IC50 [µM] SW480
[9] = free platinum(IV) complexes: equals measured IC50 of Table 3, read-out: Concentration of Pt(IV) Units at IC50 [µM] SW480
[10] = MTT, 96 h incubation, read-out: IC50 [µM] A549
[11] = free platinum(IV) complexes: equals measured IC50 of Table 3, read-out: Concentration of Pt(IV) Units at IC50 [µM] A549
[12] = MTT, 96 h incubation, read-out: IC50 [µM] CH1/PA-1
[13] = free platinum(IV) complexes: equals measured IC50 of Table 3, read-out: Concentration of Pt(IV) Units at IC50 [µM] CH1/PA-1

| Compound | IC50 [1] [µM] | IC50 [2] [µM] | IC50 [3] [µM] | IC50 [4, 8] [µM] | IC50 [4, 9] [µM] | IC50 [5, 10] [µM] | IC50 [5, 11] [µM] | IC50 [6, 12] [µM] | IC50 [6, 13] [µM] | organ distribution of platinum (ICP-MS) ([7]; 1 h post i.v. administration, 6: 0.15 mg/100 µL, V3: 0.41 mg/100 µL) | change of platinum amount in organs at 24 h vs 1 h ([7]; 24 h post i.v. injection, 6: 0.15 mg/100 µL, V3: 0.41 mg/100 µL) | increase of platinum amount in the kidneys after 24 h vs 1 h ([7]; i.v., 0.15 mg/100 µL (5.5 mg/kg oxaliplatin equivalent), female Balb/C mice) [fold] | tolerability in mice ([7]; i.v., 6: equivalent to 5.5 mg/kg oxaliplatin, V3: equivalent to 2.75 mg/kg oxaliplatin) |
| --- | --- | --- | --- | --- | --- | --- | --- | --- | --- | --- | --- | --- | --- |
| N.N.O=C([O-])C1(C(=O)[O-])CCC1.[Pt+2] [Carboplatin, carboplatin] | 38 ± 3 | 42 ± 10 | 0.79 ± 0.11 |  |  |  |  |  |  |  |  |  |  |
| N.N.[Cl][Pt][Cl] [Cisplatin, cisplatin] | 3.8 ± 1 | 2.3 ± 0.2 | 0.073 ± 0.001 |  |  |  |  |  |  |  |  |  |  |
| O=C1[O][Pt]2([NH][C@@H]3CCCC[C@H]3[NH]2)[O]C1=O [Oxaliplatin, oxaliplatin] | 0.98 ± 0.21 | 0.29 ± 0.05 | 0.18 ± 0.01 |  |  |  |  |  |  |  |  |  |  |
| (OC-6-44)-Acetaodiammine(3-carboxypropanoato)(cyclobutane-1,1-dicarboxylato)platinum(IV) [compound 4] |  |  |  | > 200 | > 200 | > 200 | > 200 | 16 ± 6 | 16 ± 6 |  |  |  |  |
| (OC-6-44)-Acetato(3-carboxypropanoato)(1R,2R-cyclohexane-1,2-diamine)oxalatoplatinum(IV) [compound 6] |  |  |  | 22 ± 8 |  | 70 ± 29 |  | 4.1 ± 0.6 | 4.1 ± 0.6 | highest concentrations in the excretory organs (kidney and liver) | only slightly raised in all systemic organs | 2.1 | well tolerated without signs of toxicity |
| (OC-6-44)-Acetatodiammine(3-carboxypropanoato)dichloridoplatinum(IV) [compound 2] |  |  |  | 47 ± 10 | 47 ± 10 | 99 ± 17 | 99 ± 17 | 1.2 ± 0.5 | 1.2 ± 0.5 |  |  |  |  |

From PMC10145531, “Platinum(IV)-Loaded Degraded Glycol Chitosan as Efficient Platinum(IV) Drug Delivery Platform” (Pharmaceutics, 2023)
